Counter-ions that a name gives are not always drawn.
Columns and labels:
[1] = tested on: Streptococcus pneumoniae ATCC49619; assay: MIC by Agar Dilution Test or Microdilution Test (CLSI M7-A7); format: cell-based; details: in vitro, strain ATCC49619, read-out: MIC against Streptococcus pneumoniae ATCC49619
Method: (§1) The in vitro activity against aerobic bacteria was determined by Agar Dilution Test or Microdilution Test according to the Clinical and Laboratory Standards Institute (CLSI, former NCCLS) Document M7-A7 Vol. 26, No. 2: “Methods for Dilution Antimicrobial Susceptibility Tests for Bacteria that Grow Aerobically—Approved Standard; Seventh Edition (2006)”; and the test against anaerobic bacteria was performed according to the Clinical and Laboratory Standards Institute (CLSI, former NCCLS), Document, M11-A6, Vol. 24, No. 2: “Methods for Antimicrobial Susceptibility Testing of Anaerobic Bacteria—Approved Standard; Sixth Edition (2004)” and the in vivo activity was tested by the septicemia mouse model against Staphylococcus aureus.

[2] = tested on: Staphylococcus aureus ATCC49951; assay: as above; format: cell-based; details: in vitro, strain ATCC49951, read-out: MIC against Staphylococcus aureus ATCC49951
Method: as §1

MIC [1]: ≤ 2 µg/mL | MIC [2]: ≤ 2 µg/mL
Compound: C=C[C@]1(C)C[C@@H](OC(=O)CSC2CCC(N)CCC2O)[C@]2(C)C(C)CCC3(CCC(=O)C32)[C@@H](C)C1O (mixture of isomers) [Example 12, 14-O-{[(1R, 2R, 5R)-5-Amino-2-hydroxy-cycloheptylsulfanyl]-acetyl}-mutilin hydrochloride and the (1S, 2S, 5S), (1R, 2R, 5S), (1S, 2S, 5R) diastereomers thereof]

Source: patent publication US9278920B2, “Pleuromutilin derivatives for use in the treatment of diseases mediated by microbes” (Nabriva Therapeutics AG, priority 2010, dated 2016)
